Results from BindingDB's records for doi:10.1016/j.bmcl.2008.04.031 (The University of Tokyo, 2008).

Test: Degradation promoting activity of FLAG tagged cIAP1 expressed in human HT1080 cells after 3 hrs by Western blotting analysis

IC50 [nM]	SMILES
1860	CC(C)C[C@H](NC(=O)[C@@H](O)[C@H](N)Cc1ccccc1)C(=O)OCCNS(=O)(=O)c1cccc2c(N(C)C)cccc12 [(S)-2-(1-(dimethylamino)naphthalene-5-sulfonamido)ethyl 2-((2S,3R)-3-amino-2-hydroxy-4-phenylbutanamido)-4-methylpentanoate]
690	COC(=O)[C@H](CC(C)C)NC(=O)[C@@H](O)[C@H](N)Cc1ccccc1 [(S)-methyl 2-((2S,3R)-3-amino-2-hydroxy-4-phenylbutanamido)-4-methylpentanoate]
